Measurements: patent publication US20110200558A1, “Treatment or Prevention of Hepatitis C with Immunomodulator Compounds” (priority 2008, published 2011)
Entries after “also recorded” stand apart in the source; their conditions may differ. Read-outs that look alike come from different tables or passages of the source.

Experiments:
HCV [1] = settings: cited from earlier work
HCV [2] = settings: within 5 days of therapy; cited from earlier work
HCV [3] = settings: higher doses (500-1500 mg/day); cited from earlier work
bone marrow cells = settings: cited from earlier work
[4] = system: 5-FU-immune-suppressed animals; settings: cited from earlier work
HCV [5] = assay: Combination treatment of hepatitis C patients, Examples 2-4; type: in vivo, human; settings: Example 4: 0.1-2.0 mg/kg/day with STAT-C and/or ribavirin and/or pegylated interferon alpha-2b or alpha-2a, up to 48 weeks
From the text: Treatment, as in the examples above, results in achieving a sustained virological response (SVR) (which is accepted as cure and used as the efficacy endpoint for FDA approval), of 65-75%. This compares favorably with the current SOC SVR of 45-50%. This improved SVR is achieved in a regimen that has much less toxicity when compared to SOC (interferon sparing).

neopterin = assay: Phase 2a dose ranging study of SCV-07: plasma biomarker neopterin; type: in vivo, human; settings: Cohort 3, 1.0 mg/kg (interim); single responding subject
From the text: (§1) Here we describe interim results from a phase 2a, proof of principle, multicenter, randomized, controlled, single-blind dose ranging study, which is evaluating the safety and antiviral effect of SCV-07 in non-cirrhotic subjects with genotype 1 chronic HCV infection. Subjects enrolled in the study must have relapsed to previous treatment with PEGylated interferon and ribavirin; therefore any change in HCV viral load of greater than 0.5 log could be considered a significant response.
(§2) Subjects are treated with 7 daily injections of SCV-07 (8 subjects per cohort) or saline (2 per cohort). […] Due to this apparent late response, a 30-day follow up visit was added for Cohort 3. Of the 4 subjects in this Cohort who have reached the 30-day visit, one has responded with a 1.2-log drop in HCV along with an increase in neopterin (see Table1).
A plasma concentration of neopterin above 10 nmol/L represents a “stimulated” immune system. […] Increased levels of neopterin also are correlated with increased sustained viral responses against HCV, and so is very strong evidence for the use of SCV-07 in this disease. The timing of the increase is also of interest.

[6] = system: Cottontail papilloma virus; settings: Cottontail papilloma virus in rabbits; cited from earlier work
[7] = system: Th1 cytokines IFN-g and IL-2, Th2 cytokines IL-4 and IL-10; settings: cited from earlier work
STAT-3 = settings: cited from earlier work
spleen lymphocytes = settings: cited from earlier work
thymocyte and lymphocyte = settings: in vitro; cited from earlier work
sheep red blood cells = settings: immunization with sheep red blood cells; cited from earlier work
Pichinde virus = Pichinde virus in guinea pigs; cited from earlier work
[8] = Phase 2a dose ranging study of SCV-07: safety and tolerability; type: in vivo, human
From the text: as §1, §2
Further clinical investigation into longer treatment duration or addition to other anti-viral agents appears warranted.

[9] = system: genotype 1 chronic HCV infection; assay: Phase 2a dose ranging study of SCV-07: HCV viral load; type: in vivo, human
From the text: as §1, §2

herpes virus HSV-2 = settings: guinea pigs infected with herpes virus HSV-2; cited from earlier work
HCV genotype 1 [10] = settings: 1500-mg twice-daily, 14 days, treatment-naive; cited from earlier work
HCV genotype 1 [11] = settings: cited from earlier work
HCV genotype 1 [12] = settings: 400 mg thrice daily for 14 days with pegylated interferon alfa-2b, previous nonresponders; cited from earlier work
HCV genotype 1 [13] = settings: 400 mg thrice daily, 14 days monotherapy, nonresponders to pegylated interferon alfa; cited from earlier work
[14] = 1500 mg twice daily for 14 days
[15] = 3000 mg twice daily for 14 days
[16] = 4500 mg twice daily for 14 days

In the case of COc1ccc2c(O[C@@H]3C[C@H]4C(=O)N[C@]5(C(=O)O)C[C@H]5/C=C\CCCCC[C@H](NC(=O)OC5CCCC5)C(=O)N4C3)cc(-c3csc(NC(C)C)n3)nc2c1 [BILN-2061], the “antiviral activity, HCV genotype 1” value (HCV [1]; HCV genotype 1) is listed as “potent antiviral activity”, the “virologic response, HCV genotype 2 and 3 patients” value (HCV [1]; HCV genotype 2 and 3) is listed as “less pronounced and more variable” and the “time of viral load reduction” value (HCV [1]; phase 1) is listed as ≤ 48 h.

For CCCCCOc1ccc(NC(=S)NC(=O)c2cccnc2)cc1C(F)(F)F [ACH-806], the “drop in HCV RNA” value (HCV [2]) is given as 2.38 log.

In the case of CNC(=O)c1c(-c2ccc(F)cc2)oc2cc(N(CCO)S(C)(=O)=O)c(C3CC3)cc12 [HCV-796], the “drop in the HCV RNA viral load” value (HCV [3]) is listed as ~1.2 log.

In the case of N[C@H](CCC(=O)N[C@@H](Cc1c[nH]c2ccccc12)C(=O)O)C(=O)O [SCV-07, γ-D-glutamyl-L-tryptophan], the “expression of Thy-1.2 on bone marrow cells” value (bone marrow cells) is listed as “stimulates expression”, the immunostimulatory effect [4] is listed as “strong immunostimulatory effect” and the “response against HCV” value (HCV [5]) is listed as “improved response”. The “Neopterin (nmol/L) Day 30” value (neopterin) was 33 nmol/L, the survival [6] was “increased survival” and the “Th2 cytokines IL-4 and IL-10” value [7] was “decreasing”. For the same compound, the “production of the Th1 cytokines IFN-g and IL-2” value [7] was “increases”, the “STAT-3 dependent signaling / STAT3 activity” value (STAT-3) was “inhibition; also recorded: inhibit” and the “Con-A-induced interleukin-2 (IL-2) production and IL-2 receptor expression by spleen lymphocytes” value (spleen lymphocytes) was “increases”. For the same compound, the “Con-A-induced thymocyte and lymphocyte proliferation” value (thymocyte and lymphocyte) was “increases”, the immunostimulatory effect (sheep red blood cells) was “strong immunostimulatory effect” and the survival (Pichinde virus) was “increased survival”. The SAEs reported ([8]; all 3 dose groups) was “No SAEs were reported”, the “discontinuation of treatment due to AEs” value ([8]; all 3 dose groups) was “no subject had to discontinue treatment due to AEs” and the tolerability ([8]; all 3 dose groups) was “well tolerated”. For the same compound, the “changes in ALT from baseline” value ([8]; any of the subjects) was “No significant changes”, the “HCV viral load response” value ([9]; Cohort 1, 0.01 mg/kg) was “no responses” and the “subjects with decrease in viral load and increase in neopterin” value ([9]; Cohort 2, 0.10 mg/kg, day 14 follow up visit) was 2 subjects. The “HCV viral load (log10 decrease) Day 30” value ([9]; Cohort 3, 1.0 mg/kg (interim), 7 daily injections, single responding subject, 30-day visit) was 1.2 log10, the “drop in HCV” value ([9]; Cohort 3, one of 4 subjects at the 30-day visit) was 1.2 log and the recurrence (herpes virus HSV-2) was “decreased recurrence”.

For CC(C)C(=O)OC[C@@]1(N=[N+]=[N-])O[C@@H](n2ccc(N)nc2=O)[C@H](OC(=O)C(C)C)[C@@H]1OC(=O)C(C)C [R1626], the “reduction in HCV RNA” value (HCV genotype 1 [10]) is given as “approximately 1.2 log”, the “Mean HCV viral reduction” value (HCV genotype 1 [11]; 500 mg twice daily for 14 days) is given as 0.3 log 10 and the “median HCV viral reduction” value (HCV genotype 1 [11]; 500 mg twice daily for 14 days) is given as 0.2 log 10. The “Mean HCV viral reduction” value (HCV genotype 1 [11]; [14]) was 1.2 log 10, the “median HCV viral reduction” value (HCV genotype 1 [11]; [14]) was 0.8 log 10 and the “Mean HCV viral reduction” value (HCV genotype 1 [11]; [15]) was 2.6 log 10. For the same compound, the “median HCV viral reduction” value (HCV genotype 1 [11]; [15]) was 2.7 log 10, the “Mean HCV viral reduction” value (HCV genotype 1 [11]; [16]) was 3.7 log 10 and the “median HCV viral reduction” value (HCV genotype 1 [11]; [16]) was 4.1 log 10.

For CC(C)(C)NC(=O)N[C@H](C(=O)N1C[C@H]2[C@@H]([C@H]1C(=O)NC(CC1CCC1)C(=O)C(N)=O)C2(C)C)C(C)(C)C (stereo partly shown) [SCH503034], the “reduction in HCV RNA” value (HCV genotype 1 [12]) is given as 2.88 log and the “drop in HCV RNA from the baseline value” (HCV genotype 1 [13]) is given as “approximately 2 log”.
